Measured values: ChEMBL document CHEMBL1909046, “DrugMatrix in vitro pharmacology data”
pIC50, pKi: −log10 of the molar value.

Experiments:
Melanocortin receptor 4 = Melanocortin receptor 4 (Homo sapiens, UniProt P32245); assay type: cell membranes, HEK293, Membrane; details: for IC50: hek293; on all read-outs here: in other assays of this panel Not Active means under 50% inhibition at 10 µM
Progesterone receptor = biological target: T1, Progesterone receptor (Bos taurus, UniProt Q690N0); test: DRUGMATRIX: Progesterone radioligand binding (ligand: [3H] R-5020); assay type: tissue-based, Uterus; details: Not Active = under 50% inhibition at 10 µM
T1 sequence (Q690N0 whole entry): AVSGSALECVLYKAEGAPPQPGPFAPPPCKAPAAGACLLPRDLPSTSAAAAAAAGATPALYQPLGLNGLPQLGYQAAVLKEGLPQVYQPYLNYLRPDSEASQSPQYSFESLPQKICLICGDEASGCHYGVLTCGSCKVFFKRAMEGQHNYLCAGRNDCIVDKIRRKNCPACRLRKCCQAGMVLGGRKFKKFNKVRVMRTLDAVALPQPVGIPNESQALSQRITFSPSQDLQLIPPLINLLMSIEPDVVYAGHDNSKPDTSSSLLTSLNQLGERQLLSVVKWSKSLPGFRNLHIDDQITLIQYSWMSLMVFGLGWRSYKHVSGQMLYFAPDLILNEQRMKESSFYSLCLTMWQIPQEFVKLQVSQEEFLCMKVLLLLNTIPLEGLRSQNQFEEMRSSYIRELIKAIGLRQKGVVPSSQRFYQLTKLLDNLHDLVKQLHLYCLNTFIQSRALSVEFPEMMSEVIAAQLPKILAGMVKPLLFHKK

[1] = biological target: Matrix metalloproteinase-9 (Homo sapiens, UniProt P14780); test: biochemical; assay type: cell-based;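 further: inhibition of isolated MMP-9 enzyme activity toward a synthetic peptide substrate, from the DrugMatrix protease screening panel; in other assays of this panel Not Active means under 50% inhibition at 10 µM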
Vasopressin V1a receptor = Vasopressin V1a receptor (Homo sapiens, UniProt P37288); assay type: cell membranes, Membrane; details: hek293; further: in other assays of this panel Not Active means under 50% inhibition at 10 µM
[2] = biological target: 5-hydroxytryptamine receptor 6 (Homo sapiens, UniProt P50406); assay type: cell membranes, HeLa, Membrane; details: for IC50: hela; for pIC50: read-out: IC50; for pKi: read-out: Ki; on all read-outs here: in other assays of this panel Not Active means under 50% inhibition at 10 µM
Cytochrome P450 3A4 = Cytochrome P450 3A4 (Homo sapiens, UniProt P08684); details: bti-tn-5b1-4; further: in other assays of this panel Not Active means under 50% inhibition at 10 µM
Cytochrome P450 3A4, sequence (P08684 whole entry): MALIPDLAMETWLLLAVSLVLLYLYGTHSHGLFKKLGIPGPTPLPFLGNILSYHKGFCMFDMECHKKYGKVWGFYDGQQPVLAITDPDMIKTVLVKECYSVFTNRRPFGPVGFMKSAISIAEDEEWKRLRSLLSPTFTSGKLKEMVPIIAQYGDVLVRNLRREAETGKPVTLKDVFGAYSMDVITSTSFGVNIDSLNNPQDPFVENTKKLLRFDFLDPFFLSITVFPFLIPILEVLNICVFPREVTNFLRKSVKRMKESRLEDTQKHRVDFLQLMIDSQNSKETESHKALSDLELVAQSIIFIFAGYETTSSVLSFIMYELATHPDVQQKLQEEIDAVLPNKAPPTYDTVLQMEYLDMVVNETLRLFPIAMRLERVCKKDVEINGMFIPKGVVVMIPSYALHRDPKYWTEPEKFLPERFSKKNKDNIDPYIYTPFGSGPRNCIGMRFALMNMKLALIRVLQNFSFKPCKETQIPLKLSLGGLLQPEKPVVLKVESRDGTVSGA

Vasopressin V1a receptor, sequence (P37288 whole entry): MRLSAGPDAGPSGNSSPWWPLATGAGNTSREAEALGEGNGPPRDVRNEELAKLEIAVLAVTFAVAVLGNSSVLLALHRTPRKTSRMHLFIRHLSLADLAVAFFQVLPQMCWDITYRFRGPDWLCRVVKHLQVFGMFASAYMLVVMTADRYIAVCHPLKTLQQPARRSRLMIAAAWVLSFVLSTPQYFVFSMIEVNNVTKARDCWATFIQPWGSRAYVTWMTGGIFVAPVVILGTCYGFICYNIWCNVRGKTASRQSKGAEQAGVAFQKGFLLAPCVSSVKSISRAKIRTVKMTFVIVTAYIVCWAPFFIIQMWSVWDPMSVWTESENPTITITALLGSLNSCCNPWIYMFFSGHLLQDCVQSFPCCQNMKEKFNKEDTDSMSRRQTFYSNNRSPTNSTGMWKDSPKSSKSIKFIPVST
5-hydroxytryptamine receptor 6, sequence (P50406 whole entry): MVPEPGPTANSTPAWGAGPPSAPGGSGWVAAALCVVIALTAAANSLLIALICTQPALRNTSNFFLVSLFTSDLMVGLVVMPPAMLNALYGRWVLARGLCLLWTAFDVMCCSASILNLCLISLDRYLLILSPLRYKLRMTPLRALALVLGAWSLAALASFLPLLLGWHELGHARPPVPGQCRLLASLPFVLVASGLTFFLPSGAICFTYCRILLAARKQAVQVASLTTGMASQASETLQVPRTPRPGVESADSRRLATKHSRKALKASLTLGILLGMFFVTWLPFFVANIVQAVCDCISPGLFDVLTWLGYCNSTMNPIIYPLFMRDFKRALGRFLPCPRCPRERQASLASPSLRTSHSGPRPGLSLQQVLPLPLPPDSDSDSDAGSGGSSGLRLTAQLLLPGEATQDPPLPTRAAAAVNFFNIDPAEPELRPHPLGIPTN
Matrix metalloproteinase-9, sequence (P14780 whole entry): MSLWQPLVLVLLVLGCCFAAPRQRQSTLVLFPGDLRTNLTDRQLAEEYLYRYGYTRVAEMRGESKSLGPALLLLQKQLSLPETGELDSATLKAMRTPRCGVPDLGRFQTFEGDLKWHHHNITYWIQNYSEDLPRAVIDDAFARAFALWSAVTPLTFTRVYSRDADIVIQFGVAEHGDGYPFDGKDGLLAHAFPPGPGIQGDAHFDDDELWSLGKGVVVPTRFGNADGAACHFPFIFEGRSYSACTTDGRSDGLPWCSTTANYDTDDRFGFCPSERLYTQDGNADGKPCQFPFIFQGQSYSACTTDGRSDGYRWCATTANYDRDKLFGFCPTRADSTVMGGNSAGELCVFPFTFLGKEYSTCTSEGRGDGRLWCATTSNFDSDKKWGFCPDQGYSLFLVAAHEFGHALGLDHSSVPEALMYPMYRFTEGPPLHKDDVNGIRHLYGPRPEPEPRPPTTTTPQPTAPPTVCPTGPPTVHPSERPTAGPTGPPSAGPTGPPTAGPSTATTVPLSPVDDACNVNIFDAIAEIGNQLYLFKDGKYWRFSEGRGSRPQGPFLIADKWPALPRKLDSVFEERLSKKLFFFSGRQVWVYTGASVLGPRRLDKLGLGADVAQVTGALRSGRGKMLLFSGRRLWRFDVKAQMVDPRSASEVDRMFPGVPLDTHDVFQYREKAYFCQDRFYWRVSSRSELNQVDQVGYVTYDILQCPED
Melanocortin receptor 4, sequence (P32245 whole entry): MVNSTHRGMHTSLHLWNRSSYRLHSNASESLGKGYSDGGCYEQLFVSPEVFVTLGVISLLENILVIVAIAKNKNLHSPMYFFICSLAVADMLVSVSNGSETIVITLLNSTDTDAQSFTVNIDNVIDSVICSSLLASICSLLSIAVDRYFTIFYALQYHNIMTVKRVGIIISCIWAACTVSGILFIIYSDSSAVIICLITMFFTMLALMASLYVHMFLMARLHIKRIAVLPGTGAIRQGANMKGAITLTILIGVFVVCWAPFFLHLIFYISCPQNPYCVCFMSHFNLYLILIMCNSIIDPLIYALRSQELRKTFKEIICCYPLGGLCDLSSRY

SMILES | pIC50 (Melanocortin receptor 4; read-out: IC50) | pKi (Melanocortin receptor 4; read-out: Ki) | IC50 (Progesterone receptor) | IC50 [1] | IC50 (Vasopressin V1a receptor) | IC50 [2] | IC50 (Melanocortin receptor 4) | IC50 (Cytochrome P450 3A4) | Ki (Cytochrome P450 3A4) | pIC50 (Progesterone receptor; read-out: IC50) | pKi (Progesterone receptor; read-out: Ki) | pIC50 ([1]; read-out: IC50) | pIC50 [2] | pKi [2]
Cc1c(C)c2c(c(C)c1O)CCC(C)(CN1CCN(c3cc(N4CCCC4)nc(N4CCCC4)n3)CC1)O2 (stereo not drawn) | 4.24 | 4.25 | Not Active | Not Active | Not Active | Not Active | – | – | – | – | – | – | – | –
COc1ccc(CCN(C)CCCC(C#N)(c2ccc(OC)c(OC)c2)C(C)C)cc1OC (stereo not drawn) | – | – | Not Active | Not Active | Not Active | Not Active | Not Active | Not Active | Not Active | – | – | – | – | –
CC(C)Cc1ccc([C@@H](C)C(=O)O)cc1 [(R)-IBUPROPHEN] | – | – | Not Active | Not Active | Not Active | Not Active | Not Active | Not Active | Not Active | – | – | – | – | –
CN(C)CCOC(c1ccccc1)c1ccccc1 [DIPHENHYDRAMINE] | – | – | Not Active | Not Active | Not Active | Not Active | Not Active | – | – | – | – | – | – | –
Clc1ccc(COC(Cn2ccnc2)c2ccc(Cl)cc2Cl)cc1 (stereo not drawn) [ECONAZOLE] | – | – | – | – | Not Active | – | Not Active | – | – | 4.99 | 5.88 | 5.16 | 4.96 | 5.30
CCN(CC)CCOc1ccc(/C(=C(/Cl)c2ccccc2)c2ccccc2)cc1 [ENCLOMIPHENE] | – | – | Not Active | Not Active | Not Active | – | Not Active | Not Active | Not Active | – | – | – | 5.82 | 6.15
Fc1ccc(C(c2ccc(F)cc2)N2CCN(C/C=C/c3ccccc3)CC2)cc1 [FLUNARIZINE] | – | – | Not Active | Not Active | Not Active | Not Active | Not Active | Not Active | Not Active | – | – | – | – | –
CNCCC(Oc1ccc(C(F)(F)F)cc1)c1ccccc1 (stereo not drawn) [FLUOXETINE] | – | – | Not Active | Not Active | Not Active | – | Not Active | Not Active | Not Active | – | – | – | – | –
Cc1ccc(NC(=O)c2ccc(CN3CCN(C)CC3)cc2)cc1Nc1nccc(-c2cccnc2)n1 [IMATINIB] | – | – | Not Active | Not Active | Not Active | Not Active | Not Active | – | – | – | – | – | – | –
CC(C)Oc1ccc2c(=O)c(-c3ccccc3)coc2c1 [IPRIFLAVONE] | – | – | Not Active | Not Active | Not Active | Not Active | Not Active | Not Active | Not Active | – | – | – | – | –
CC(C)NCC(O)c1ccc(O)c(O)c1 (stereo not drawn) [ISOPROTERENOL] | – | – | Not Active | Not Active | Not Active | Not Active | Not Active | Not Active | Not Active | – | – | – | – | –
CNC1(c2ccccc2Cl)CCCCC1=O (stereo not drawn) [KETAMINE] | – | – | Not Active | Not Active | Not Active | Not Active | Not Active | Not Active | Not Active | – | – | – | – | –
N#Cc1ccc(C(c2ccc(C#N)cc2)n2cncn2)cc1 [LETROZOLE] | – | – | Not Active | Not Active | Not Active | Not Active | Not Active | Not Active | Not Active | – | – | – | – | –
CCN1CCC[C@H]1CNC(=O)c1cc(S(N)(=O)=O)ccc1OC [LEVOSULPIRIDE] | – | – | Not Active | Not Active | Not Active | Not Active | Not Active | Not Active | Not Active | – | – | – | – | –
CCN(CC)CC(=O)Nc1c(C)cccc1C [LIDOCAINE] | – | – | Not Active | Not Active | Not Active | Not Active | Not Active | – | – | – | – | – | – | –
O=C1Nc2ccc(Cl)cc2C(c2ccccc2Cl)=NC1O (stereo not drawn) [LORAZEPAM] | – | – | Not Active | Not Active | Not Active | Not Active | Not Active | Not Active | Not Active | – | – | – | – | –
CO[C@@H]1[C@@H](OC)[C@H](C)[C@@](O)(CC(=O)O)O[C@H]1[C@H](C)[C@H]1O[C@@]2(CC[C@@](C)([C@H]3CC[C@@](C)([C@@H]4O[C@@H]([C@H]5O[C@](C)(O)[C@H](C)C[C@@H]5C)C[C@@H]4O[C@@H]4C[C@H](OC)[C@@H](OC)[C@H](C)O4)O3)O2)C[C@H](O)[C@H]1C [MADURAMICIN ACID] | – | – | Not Active | Not Active | Not Active | – | Not Active | Not Active | Not Active | – | – | – | 8.77 | 9.10
